In patent US8143243B2, “Compounds for the treatment of hepatitis C” (Bristol-Myers Squibb Company, priority 2007, dated 2012) one finds EC50 and IC50 data, which are given here for 33 molecules.

One experiment concerns HCV replicon cells. The experiment in a line: HCV replicon FRET / luciferase assay. Format: cell-based. The settings on record: Hepatitis C virus. The gist of the method:
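Percent activity is background-subtracted signal relative to untreated cell wells, with background taken from maximal protease-inhibitor wells. Cytotoxicity is Alamar blue fluorescence relative to controls. Replicon inhibition was read by NS3 FRET peptide cleavage (340/490 nm) or luciferase.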
(In general: Replicon systems follow genome replication, usually without infectious particles.)

For a further experiment, the target named is T1, HCV NS5B (Hepatitis C virus genotype 1b, UniProt Q9WMX2).
T1 construct: The protein was expressed with an 18 amino acid C-terminal truncation to enhance the solubility; made in house; host or cells: E. coli BL21 (DE3)
Description: HCV NS5B RdRp enzyme assay (standard / modified). Type of experiment: biochemical. An outline of the steps:
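SPA detection of 3H-UTP (0.29 μM) incorporation by C-terminally truncated (18 aa) genotype 1b NS5B from E. coli, on polyA/biotin-oligo-dT12 at 30° C, pH 7.5 Hepes, 2% DMSO. Modified format: 14 nM enzyme, 0.2 nM template, 20 nM primer prebound to beads, 4 h; standard: 28 nM, 6 nM, 180 nM free primer, 60 min. Seven-point IC50 fit.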

[1] abbreviates: HCV replicon cells, FRET or luciferase readout, read-out: EC50.
Setting [2] is: HCV RdRp genotype 1b enzyme, read-out: IC50.

Molecules are shown by their SMILES. Read-outs that look alike come from different tables or passages of the source.

T1 sequence (Q9WMX2 2420-2992): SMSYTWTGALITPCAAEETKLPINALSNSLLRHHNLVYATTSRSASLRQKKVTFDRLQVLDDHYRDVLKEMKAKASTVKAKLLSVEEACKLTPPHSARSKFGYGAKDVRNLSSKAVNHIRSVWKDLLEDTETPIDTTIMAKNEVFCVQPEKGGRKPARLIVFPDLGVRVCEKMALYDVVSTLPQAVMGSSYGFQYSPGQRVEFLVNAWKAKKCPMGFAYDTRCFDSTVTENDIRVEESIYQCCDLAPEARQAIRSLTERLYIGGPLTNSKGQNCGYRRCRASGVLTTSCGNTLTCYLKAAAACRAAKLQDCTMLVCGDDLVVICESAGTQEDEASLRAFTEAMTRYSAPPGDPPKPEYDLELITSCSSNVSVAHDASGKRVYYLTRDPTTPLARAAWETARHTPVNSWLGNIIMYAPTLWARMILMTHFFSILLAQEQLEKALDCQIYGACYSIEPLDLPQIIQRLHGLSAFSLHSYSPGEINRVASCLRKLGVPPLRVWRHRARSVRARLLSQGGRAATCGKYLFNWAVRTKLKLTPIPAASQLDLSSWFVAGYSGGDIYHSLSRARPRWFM

On to `CCn1ncc(C(=O)N2CCO[C@@H](COC)C2)c1C1=Cc2cc(OC)ccc2-c2c(C3CCCCC3)c3ccc(C(=O)NS(=O)(=O)C(C)C)cc3n2C1`, for which the EC50 in the experiment with HCV replicon cells (setting [1]) is 1 to 500 nM. The IC50 at HCV NS5B (setting [2]) is 1 to 500 nM.
With `COc1ccc2c(c1)C=C(c1c(C(=O)N3CCN(C)CC3)c(C)nn1C(C)C)Cn1c-2c(C2CCCCC2)c2ccc(C(=O)NS(=O)(=O)C(C)C)cc21`, the EC50 in the experiment on HCV replicon cells (setting [1]) was 1 to 500 nM. For the same molecule, the IC50 at HCV NS5B (setting [2]) lay in the range of 1 to 500 nM.
Regarding `COc1ccc2c(c1)C=C(c1occc1C(=O)N1CCOCC1)Cn1c-2c(C2CCCCC2)c2ccc(C(=O)NS(=O)(=O)C(C)C)cc21`, the EC50 in the experiment on HCV replicon cells (setting [1]) was 1 to 500 nM. Further, the IC50 on HCV NS5B (setting [2]) lay within 1 to 500 nM.
Turning to `COc1ccc2c(c1)C=C(c1c(C(=O)O)c(C)nn1C)Cn1c-2c(C2CCCCC2)c2ccc(C(=O)NS(=O)(=O)C(C)C)cc21`, in the experiment on HCV replicon cells (setting [1]), the EC50 is greater than 500 nM. Moreover, the IC50 on HCV NS5B (setting [2]) was 1 to 500 nM.
The corresponding values for `COc1ccc2c(c1)C=C(c1c(C(=O)N3CCOCC3)ccn1C(C)C)Cn1c-2c(C2CCCCC2)c2ccc(C(=O)NS(=O)(=O)C(C)C)cc21` are 1 to 500 nM and 1 to 500 nM.
As to `COc1ccc2c(c1)C=C(c1c(C(=O)N3C4CCCC3COC4)cnn1CC(F)(F)F)Cn1c-2c(C2CCCCC2)c2ccc(C(=O)NS(=O)(=O)C(C)C)cc21`, in the experiment with HCV replicon cells, the EC50 lay within 1 to 500 nM. In addition, the IC50 on HCV NS5B lay within 1 to 500 nM.
Take `COc1ccc2c(c1)C=C(c1c(C(=O)N3CCCC3CN3CCCCC3)cnn1C)Cn1c-2c(C2CCCCC2)c2ccc(C(=O)NS(=O)(=O)N3CCOCC3)cc21` (stereo not drawn): in the experiment with HCV replicon cells (setting [1]), the half-maximal effective concentration (EC50) fell in the range of 1 to 500 nM. The IC50 on HCV NS5B (setting [2]) lay within 1 to 500 nM.
In the case of `COc1ccc2c(c1)C=C(c1c(C(=O)N3C4C=C(C)CC3CC4)cnn1C(C)C)Cn1c-2c(C2CCCCC2)c2ccc(C(=O)NS(=O)(=O)C(C)C)cc21` (stereo not drawn), the EC50 in the experiment with HCV replicon cells lay within 1 to 500 nM. Besides, the IC50 against HCV NS5B was in the range of 1 to 500 nM.
Take `CCN1C[C@@H]2CC1CN2C(=O)c1cnn(C(C)C)c1C1=Cc2cc(OC)ccc2-c2c(C3CCCCC3)c3ccc(C(=O)NS(=O)(=O)C(C)C)cc3n2C1`: in the experiment on HCV replicon cells (setting [1]), the EC50 lay in the range of 1 to 500 nM. The IC50 at HCV NS5B (setting [2]) was in the range of 1 to 500 nM.
In the experiment with HCV replicon cells, `COc1ccc2c(c1)C=C(c1c(C(=O)N3C4CCCC3COC4)cnn1C)Cn1c-2c(C2CCCCC2)c2ccc(C(=O)NS(=O)(=O)C3CCC3)cc21` came in with an EC50 of 1 to 500 nM. The molecule also gave an IC50 at HCV NS5B of 1 to 500 nM.
`COc1ccc2c(c1)C=C(c1c(C(=O)N3C[C@@H](C)O[C@@H](C)C3)cnn1C(C)C)Cn1c-2c(C2CCCCC2)c2ccc(C(=O)NS(=O)(=O)CC(C)C)cc21`: in the experiment on HCV replicon cells (setting [1]), the EC50 was 1 to 500 nM. Also, the IC50 on HCV NS5B (setting [2]) lay in the range of 1 to 500 nM.
With `COc1ccc2c(c1)C=C(c1c(C(=O)N3C[C@@H](C)O[C@@H](C)C3)c(C)nn1C(C)C)Cn1c-2c(C2CCCCC2)c2ccc(C(=O)NS(=O)(=O)C(C)C)cc21`, in the experiment with HCV replicon cells (setting [1]), the EC50 was 1 to 500 nM. For the same molecule, on HCV NS5B (setting [2]), the IC50 was 1 to 500 nM.
Regarding `CCC(C)S(=O)(=O)NC(=O)c1ccc2c(C3CCCCC3)c3n(c2c1)CC(c1c(C(=O)N2CCCC(N(C)C)C2)cnn1C)=Cc1cc(OC)ccc1-3` (stereo not drawn), the EC50 in the experiment with HCV replicon cells (setting [1]) fell in the range of 1 to 500 nM. Also, on HCV NS5B (setting [2]), the half-maximal inhibitory concentration (IC50) was in the range of 1 to 500 nM.
Take `CCOC(=O)c1cnn(C)c1C1=Cc2cc(OC)ccc2-c2c(C3CCCCC3)c3ccc(C(=O)O)cc3n2C1`: the EC50 in the experiment on HCV replicon cells (setting [1]) was 1 to 500 nM. In addition, the IC50 at HCV NS5B (setting [2]) lay within 1 to 500 nM.
For the molecule `COc1ccc2c(c1)C=C(c1c(C(=O)N3CCN(C(C)C)CC3)cnn1C)Cn1c-2c(C2CCCCC2)c2ccc(C(=O)NS(=O)(=O)C(C)C)cc21`, in the experiment with HCV replicon cells (setting [1]), the EC50 was 1 to 500 nM. Further, the IC50 on HCV NS5B (setting [2]) was 1 to 500 nM.
`COc1ccc2c(c1)C=C(c1c(C(=O)N3CC(C)N(C)C(C)C3)cnn1C(C)C)Cn1c-2c(C2CCCCC2)c2ccc(C(=O)NS(=O)(=O)C(C)C)cc21` (stereo not drawn): the EC50 in the experiment on HCV replicon cells (setting [1]) was 1 to 500 nM. The IC50 on HCV NS5B (setting [2]) lay within 1 to 500 nM.
Consider `COc1ccc2c(c1)C=C(c1ocnc1C(=O)N1CCOCC1)Cn1c-2c(C2CCCCC2)c2ccc(C(=O)NS(=O)(=O)C(C)C)cc21`, for which, in the experiment on HCV replicon cells (setting [1]), the EC50 lay in the range of 1 to 500 nM. For the same molecule, the IC50 on HCV NS5B (setting [2]) was 1 to 500 nM.
For `COc1ccc2c(c1)C=C(c1c(C(=O)N3C[C@@H](C)N(C)[C@@H](C)C3)c(C(F)(F)F)nn1C)Cn1c-2c(C2CCCCC2)c2ccc(C(=O)NS(=O)(=O)C(C)C)cc21`, the EC50 in the experiment on HCV replicon cells (setting [1]) fell in the range of 1 to 500 nM. Further, at HCV NS5B (setting [2]), the IC50 is 1 to 500 nM.
As for `COc1ccc2c(c1)C=C(c1c(C(=O)N3C4CCC3CN(C)C4)cnn1C)Cn1c-2c(C2CCCCC2)c2ccc(C(=O)NS(=O)(=O)N3CCCC3)cc21`, the EC50 with HCV replicon cells fell in the range of 1 to 500 nM. Also, the IC50 against HCV NS5B lay in the range of 1 to 500 nM.
`COc1ccc2c(c1)C=C(c1c(C(=O)N3C4CCC3CC4)cnn1C)Cn1c-2c(C2CCCCC2)c2ccc(C(=O)NS(=O)(=O)N3CCOCC3)cc21` showed an EC50 in the experiment with HCV replicon cells of 1 to 500 nM. Further, the IC50 at HCV NS5B was in the range of 1 to 500 nM.
`COc1ccc2c(c1)C=C(c1c(C(=O)N3CC4CCC(C3)O4)cnn1C)Cn1c-2c(C2CCCCC2)c2ccc(C(=O)NS(=O)(=O)C(C)C)cc21`: the EC50 in the experiment with HCV replicon cells (setting [1]) was in the range of 1 to 500 nM. On HCV NS5B (setting [2]), the IC50 was less than 20 nM.
In the case of `COc1ccc2c(c1)C=C(c1c(C(=O)N3CC4CCC(C3)N4C)cnn1CC(F)(F)F)Cn1c-2c(C2CCCCC2)c2ccc(C(=O)NS(=O)(=O)C(C)C)cc21`, the EC50 in the experiment with HCV replicon cells was in the range of 1 to 500 nM. At HCV NS5B, this molecule came in with an IC50 of 1 to 500 nM.
Regarding `CCn1ncc(C(=O)N2CCOCC2)c1C1=Cc2cc(OC)ccc2-c2c(C3CCCCC3)c3ccc(C(=O)N4CCOCC4)cc3n2C1`, the EC50 in the experiment on HCV replicon cells (setting [1]) lay within 1 to 500 nM. The IC50 on HCV NS5B (setting [2]) was greater than 500 nM.
Turning to `COc1ccc2c(c1)C=C(c1c(C(=O)N3C4C=C(C)CC3CC4)cnn1C(C)C)Cn1c-2c(C2CCCCC2)c2ccc(C(=O)NS(=O)(=O)CC(C)C)cc21` (stereo not drawn), in the experiment on HCV replicon cells, the EC50 was 1 to 500 nM. This molecule also returned an IC50 on HCV NS5B of 1 to 500 nM.
`COc1ccc2c(c1)C=C(c1c(C(=O)N3CCCC(N(C)C)C3)cnn1C)Cn1c-2c(C2CCCCC2)c2ccc(C(=O)NS(=O)(=O)C3CCC3)cc21` (stereo not drawn): the EC50 in the experiment with HCV replicon cells (setting [1]) fell in the range of 1 to 500 nM. Further, the IC50 on HCV NS5B (setting [2]) is 1 to 500 nM.
With `CCOC(=O)c1ccoc1C1=Cc2cc(OC)ccc2-c2c(C3CCCCC3)c3ccc(C(=O)NS(=O)(=O)C(C)C)cc3n2C1`, the EC50 with HCV replicon cells (setting [1]) was greater than 500 nM. Moreover, the IC50 on HCV NS5B (setting [2]) is 1 to 500 nM.
The matching figures for `COC[C@@H]1CN(C(=O)c2cnn(C(C)C)c2C2=Cc3cc(OC)ccc3-c3c(C4CCCCC4)c4ccc(C(=O)NS(=O)(=O)CC(C)C)cc4n3C2)CCO1`: 1 to 500 nM and 1 to 500 nM.
The molecule `COc1ccc2c(c1)C=C(c1c(C(=O)N3C4CCC3CN(C)C4)cnn1C)Cn1c-2c(C2CCCCC2)c2ccc(C(=O)NS(=O)(=O)CC(C)C)cc21` registered an EC50 with HCV replicon cells of 1 to 500 nM. In addition, the IC50 at HCV NS5B lay within 1 to 500 nM.
Regarding `COc1ccc2c(c1)C=C(c1c(C(=O)N3[C@@H]4CC[C@H]3C[C@@](C)(O)C4)cnn1C)Cn1c-2c(C2CCCCC2)c2ccc(C(=O)NS(=O)(=O)N3CCOCC3)cc21`, the EC50 with HCV replicon cells lay within 1 to 500 nM. The same molecule showed an IC50 against HCV NS5B of 1 to 500 nM.
For the molecule `COc1ccc2c(c1)C=C(c1c(C(=O)N3C[C@@H](C)N(C)[C@@H](C)C3)cnn1C)Cn1c-2c(C2CCCCC2)c2ccc(C(=O)NS(=O)(=O)C(C)C)cc21`, the EC50 with HCV replicon cells (setting [1]) lay in the range of 1 to 500 nM. Further, at HCV NS5B (setting [2]), the IC50 is 1 to 500 nM.
As for `COc1ccc2c(c1)C=C(c1c(C(=O)N3C[C@@H](C)N(C)[C@@H](C)C3)cnn1C(C)C)Cn1c-2c(C2CCCCC2)c2ccc(C(=O)NS(=O)(=O)CC(C)C)cc21`, in the experiment on HCV replicon cells (setting [1]), the EC50 was 1 to 500 nM. Besides, the IC50 on HCV NS5B (setting [2]) was in the range of 1 to 500 nM.
As to `COc1ccc2c(c1)C=C(c1c(C(=O)N3CCOCC3)cnn1C(C)C)Cn1c-2c(C2CCCCC2)c2ccc(C(=O)O)cc21`, the EC50 in the experiment with HCV replicon cells (setting [1]) was 1 to 500 nM. Moreover, the IC50 on HCV NS5B (setting [2]) is 1 to 500 nM.
As for `COc1ccc2c(c1)C=C(c1c(C(=O)N3C[C@@H](C)O[C@@H](C)C3)cnn1C(C)(C)C)Cn1c-2c(C2CCCCC2)c2ccc(C(=O)NS(=O)(=O)C(C)C)cc21`, the EC50 in the experiment on HCV replicon cells (setting [1]) is 1 to 500 nM. For the same molecule, at HCV NS5B (setting [2]), the IC50 lay in the range of 1 to 500 nM.

What is called EC50 is the concentration needed to bring the measured effect to its halfway point. Broadly, the IC50 is the concentration at which inhibition is half-maximal.
